From the NIST ThermoML archive (doi:10.1016/j.jct.2016.09.014)

Test: mn = molality of the nth substance listed, in mol/kg
Conditions: 298.15 K, 101.3 kPa, Liquid; for binary diffusion coefficient: Taylor dispersion method; for mass density: Vibrating tube method

NCCCC(=O)O [4-aminobutanoic acid] + O
Conditions | binary diffusion coefficient [m2/s] | mass density [kg/m3]
m1 = 0.001003 | 7.8e-10 | –
m1 = 0.00106 | – | 997.083
m1 = 0.00258 | – | 997.127
m1 = 0.00467 | – | 997.199
m1 = 0.005016 | 7.79e-10 | –
m1 = 0.00517 | – | 997.203
m1 = 0.00833 | – | 997.308
m1 = 0.01004 | 7.78e-10 | –
m1 = 0.01088 | – | 997.389
m1 = 0.01968 | – | 997.658
m1 = 0.02009 | 7.77e-10 | –
m1 = 0.03015 | 7.76e-10 | –
m1 = 0.03823 | – | 998.069
m1 = 0.05033 | 7.72e-10 | –
m1 = 0.05427 | – | 998.687
m1 = 0.06297 | – | 998.944
m1 = 0.07297 | – | 999.113
m1 = 0.101 | 7.65e-10 | –
m1 = 0.1017 | – | 1000.1
